From patent US8871510B2, “Methods for generating T lymphocytes from hematopoietic stem cells” (University of Utah Research Foundation, priority 2009, dated 2014)

How the values were obtained:
[1] = test system: mouse lymphoid progenitor cells (c-kit+Sca-1+ lineage-neg CD90.1-neg); assay: Ascorbate versus other anti-oxidants in OP9-DL1 lymphoid progenitor culture (30 days); assay type: cell-based; settings: added after 14 days, culture through 30 days; anti-oxidants data not shown
Description: To establish the mechanism by which ascorbic acid promotes T cell development, we initially tested whether the anti-oxidant activity of ascorbic acid plays a key role. To test this, mouse lymphoid progenitor cells were isolated from adult bone marrow tissue by flow sorting, based on the phenotype c-kit+Sca-1+ lineage-neg CD90.1-neg, and 1000-2000 cells were plated per ml in the presence of the cytokines IL7 and Flt3L and the stromal cell line OP9-DL1. Cultures were harvested by forceful pipetting every 3-4 days and reseeded on a fresh monolayer of OP9-DL1 cells. After 14 days in culture, the cell number had expanded approximately 1000-fold (data not shown). At this point, the culture was split into two conditions, with one set of cultures supplemented with 1-ascorbic acid-2-phosphate (250 μg/ml), and the passages were continued through 30 days. […] Numbers indicate the percentage of cells with co-expression of CD4 and CD8 or CD3 and TCR.

[2] = test system: mouse bone marrow-derived progenitor cells; assay: Growth kinetics of bone marrow-derived progenitor cells in OP9-DL1 cultures (cytokines, ΔQ, NH4Cl); assay type: cell-based
From the text: The combination of Flt3L and IL-7 promotes 10^5-fold expansion over 26 days, while addition of stem cell factor (SCF) enhances this by 5-fold. […] The growth inhibition is mainly due to the failure of selection by TCR signaling, as shown by the failure of CD4^+CD8^+ double positive (DP) cells to survive and expand.
In this Example, several important variables that are important to the successful development of T lymphocytes from bone marrow-derived cells were identified. […] Our experiments defining optimal culture conditions tell us that in order to promote T cell development from bone marrow-derived progenitor cells, a two-stage culture system is required. In the first stage, bone marrow cells are expanded under the influence of lymphoid-specifying cytokines (IL-7 and Flt3 ligand) and notch signaling delivered by OP9-DL1 cells. The expansion of the resulting pro-T cells is robust, reaching a total expansion of 10^5-fold or more (FIG. 1).
All cultures were initiated by seeding 2×10^3 FACS-sorted bone marrow progenitor cells, selected based on the surface phenotype c-kit+Sca-1+Thy-1.1-neg lineage-neg, onto a feeder layer of OP9-DL1 stromal cells. All cultures contained 1 ng/ml IL-7 and 5 ng/ml Flt3L and otherwise identical additives (10% fetal calf serum, stabilized alanyl-glutamine, antibiotics, 2-ME, supplemental amino acids, and supplemental vitamins).

[3] = test system: Lymphocyte progenitor cells (KLS, Thy1.1-); assay: TLR-L and ascorbic acid effects on NK and T cell development from lymphoid progenitors co-cultured with OP9-DL1; assay type: cell-based, mouse; settings: SCF contaminated with LPS through production in E. coli
Description: We therefore designed experiments to evaluate the differential effects of TLR-L and ascorbic acid on NK and T cell development from lymphoid progenitors co-cultured with OP9-DL1 stromal cells. Lymphocyte progenitor cells (KLS, Thy1.1-) were sorted from adult mouse bone marrow and 1000-2000 progenitor cells were seeded per well in a 24 well plate coated with OP9-DL1 stroma. Cultures were supplemented with IL-7 (5 ng/ml), Flt3 ligand (5 ng/ml), and SCF (100 ng/ml) plus one of 5 different TLR-L (TLR1/2, TLR3, TLR4, TLR5, and a crude LPS preparation that likely contains a number of TLR-L), with or without addition of a stabilized form of ascorbic acid, phosphoascorbate at a final concentration of 250 μg/ml. Cells were passaged, counted and re-seeded with fresh media and supplements twice a week over a 30-day period. Immunophenotype and viability were evaluated by flow cytometry. Markers for T cell development included CD44, CD25, CD3, CD4, CD8, T cell receptor […] and T cell receptor γδ chains. NK cells were evaluated for the presence of NKp46, NK1.1, and DX5.

Row | Compound | Differentiating effect (CD4/CD8 and CD3/TCR co-expression) [1] | also measured
1 | N[C@@H](CS)C(=O)O [1-cysteine] | not reproduced | 
2 | CC(=O)N[C@@H](CS)C(=O)O [N-acetyl-cysteine] | not reproduced | 
3 | Cl.N [NH4Cl, reference compound] |  | Expansion of the T lineage ([2]; day 15 of culture, FIG. 1B): cease to expand
4 | O=C(O)CCCCC1CCSS1 (stereo not drawn) [alpha-lipoic acid] | not reproduced | 
5 | SCF: stem cell factor; in b105 contaminated with LPS through its production in E. coli |  | Enhancement of expansion on addition to Flt3L and IL-7 ([2]; over 26 days, FIG. 1A): 5 fold; Promotion of NK cell development in the OP9-DL1 culture system [3]: particularly effective
